Reference: patent publication US20090131470A1, “PYRAZOLE-SUBSTITUTED BENZIMIDAZOLE DERIVATIVES FOR USE IN THE TREATMENT OF CANCER AND AUTOIMMUNE DISORDERS” (priority 2005, published 2009)
pIC50: −log10 of the molar value.

What was measured:
Assay type in all cases: biochemical
IGF-IR = IGF-IR (Homo sapiens, UniProt P08069); assay: Kinase selectivity screening (example 14)
Flt1 = Flt1 (Homo sapiens, UniProt P17948); assay: Kinase selectivity screening (example 14)
GST-Chk1 enzyme = target: T1, GST-Chk1 enzyme (Homo sapiens, UniProt O14757); assay: Chk1 kinase assay (33P Chktide phosphorylation); details: 0.01 mM ATP, 40 minutes at 30° C.; read-out: CHK-1 IC50
T1 sequence (O14757 1-476): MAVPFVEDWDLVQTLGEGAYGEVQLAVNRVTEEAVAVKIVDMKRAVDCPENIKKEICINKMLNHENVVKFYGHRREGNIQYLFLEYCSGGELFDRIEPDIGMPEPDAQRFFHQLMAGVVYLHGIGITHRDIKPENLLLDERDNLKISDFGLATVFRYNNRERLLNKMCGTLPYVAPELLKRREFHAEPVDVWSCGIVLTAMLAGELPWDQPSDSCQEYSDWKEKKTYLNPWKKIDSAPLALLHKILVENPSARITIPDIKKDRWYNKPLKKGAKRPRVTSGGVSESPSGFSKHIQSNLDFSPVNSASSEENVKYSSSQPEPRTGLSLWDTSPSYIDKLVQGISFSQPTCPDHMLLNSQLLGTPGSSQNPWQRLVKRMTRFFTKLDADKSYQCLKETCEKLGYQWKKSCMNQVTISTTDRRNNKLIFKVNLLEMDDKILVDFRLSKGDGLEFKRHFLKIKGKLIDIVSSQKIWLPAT

[1] = target: CDK-2 enzyme, complexed with cyclin A (Homo sapiens, UniProt P24941); assay: CDK2 kinase assay (33P peptide phosphorylation); details: 0.1 mM ATP, cyclin A complex
FGFR4 = FGFR4 (Homo sapiens, UniProt P22455); assay: Kinase selectivity screening (example 14)
FGFR2 = FGFR2 (Homo sapiens, UniProt P21802); assay: Kinase selectivity screening (example 14)
EGFR = EGFR (Homo sapiens, UniProt P00533); assay: Kinase selectivity screening (example 14)
Tie2 = Tie2 (Homo sapiens, UniProt Q02763); assay: Kinase selectivity screening (example 14)
Syk = Syk (Homo sapiens, UniProt P43405); assay: Kinase selectivity screening (example 14)
ITK = target: T2, ITK (Homo sapiens, UniProt Q08881); assay: Kinase selectivity screening (example 14)
T2 sequence (Q08881 1-620): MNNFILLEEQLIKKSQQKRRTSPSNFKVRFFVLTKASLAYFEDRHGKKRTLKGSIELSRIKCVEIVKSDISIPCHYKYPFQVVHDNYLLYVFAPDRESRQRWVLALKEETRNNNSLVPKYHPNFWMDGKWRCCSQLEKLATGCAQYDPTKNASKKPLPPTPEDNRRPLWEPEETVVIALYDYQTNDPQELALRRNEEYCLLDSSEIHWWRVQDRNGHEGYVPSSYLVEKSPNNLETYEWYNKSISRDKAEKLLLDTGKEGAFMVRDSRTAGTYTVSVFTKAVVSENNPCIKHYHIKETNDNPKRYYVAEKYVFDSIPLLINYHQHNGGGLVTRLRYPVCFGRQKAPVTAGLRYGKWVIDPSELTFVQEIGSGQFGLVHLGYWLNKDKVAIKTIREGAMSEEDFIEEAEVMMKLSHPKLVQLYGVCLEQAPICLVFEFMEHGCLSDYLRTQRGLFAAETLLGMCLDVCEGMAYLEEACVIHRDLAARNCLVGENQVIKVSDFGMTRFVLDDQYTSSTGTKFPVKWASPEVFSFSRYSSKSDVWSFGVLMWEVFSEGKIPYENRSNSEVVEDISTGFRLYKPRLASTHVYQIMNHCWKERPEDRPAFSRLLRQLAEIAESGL

KDR = KDR (Homo sapiens, UniProt P35968); assay: Kinase selectivity screening (example 14)
FGFR1 = FGFR1 (Homo sapiens, UniProt P11362); assay: Kinase selectivity screening (example 14)
PDGFRa = PDGFRa (Homo sapiens, UniProt P16234); assay: Kinase selectivity screening (example 14)

Sequence of IGF-IR (P08069 31-1367): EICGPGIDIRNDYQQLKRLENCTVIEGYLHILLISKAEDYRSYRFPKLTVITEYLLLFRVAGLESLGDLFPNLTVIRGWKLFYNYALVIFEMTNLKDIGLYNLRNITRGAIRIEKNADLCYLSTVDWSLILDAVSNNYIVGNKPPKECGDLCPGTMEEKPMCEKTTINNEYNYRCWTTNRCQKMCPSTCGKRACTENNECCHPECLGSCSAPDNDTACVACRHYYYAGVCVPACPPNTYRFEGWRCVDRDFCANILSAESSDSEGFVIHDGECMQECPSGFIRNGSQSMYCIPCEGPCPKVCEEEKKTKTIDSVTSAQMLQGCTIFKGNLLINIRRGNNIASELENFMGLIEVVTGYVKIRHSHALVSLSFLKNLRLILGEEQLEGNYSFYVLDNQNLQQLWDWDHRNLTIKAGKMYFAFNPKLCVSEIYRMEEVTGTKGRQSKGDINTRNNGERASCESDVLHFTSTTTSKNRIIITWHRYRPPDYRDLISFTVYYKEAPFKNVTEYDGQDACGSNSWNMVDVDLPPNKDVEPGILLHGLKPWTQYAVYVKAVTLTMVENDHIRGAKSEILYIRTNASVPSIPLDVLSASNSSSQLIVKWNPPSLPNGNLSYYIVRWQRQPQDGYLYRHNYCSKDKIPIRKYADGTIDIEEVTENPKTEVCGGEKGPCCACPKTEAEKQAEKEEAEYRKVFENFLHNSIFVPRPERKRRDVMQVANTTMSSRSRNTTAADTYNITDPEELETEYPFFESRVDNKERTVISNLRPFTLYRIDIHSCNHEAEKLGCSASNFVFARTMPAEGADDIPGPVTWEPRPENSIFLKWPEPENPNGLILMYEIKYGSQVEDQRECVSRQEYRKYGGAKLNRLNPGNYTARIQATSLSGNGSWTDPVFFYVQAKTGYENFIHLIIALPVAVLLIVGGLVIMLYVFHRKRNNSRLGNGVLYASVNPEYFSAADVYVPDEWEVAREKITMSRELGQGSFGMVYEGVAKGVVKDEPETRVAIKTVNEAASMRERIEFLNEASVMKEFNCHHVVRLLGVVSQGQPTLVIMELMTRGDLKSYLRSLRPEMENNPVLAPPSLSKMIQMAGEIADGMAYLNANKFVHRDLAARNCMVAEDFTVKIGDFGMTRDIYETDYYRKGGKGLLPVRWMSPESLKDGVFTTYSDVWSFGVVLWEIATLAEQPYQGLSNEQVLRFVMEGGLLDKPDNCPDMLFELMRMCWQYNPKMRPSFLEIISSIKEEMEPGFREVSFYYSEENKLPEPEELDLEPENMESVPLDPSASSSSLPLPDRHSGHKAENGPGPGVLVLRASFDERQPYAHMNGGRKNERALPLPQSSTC
Sequence of Tie2 (Q02763 23-1124, species assumed): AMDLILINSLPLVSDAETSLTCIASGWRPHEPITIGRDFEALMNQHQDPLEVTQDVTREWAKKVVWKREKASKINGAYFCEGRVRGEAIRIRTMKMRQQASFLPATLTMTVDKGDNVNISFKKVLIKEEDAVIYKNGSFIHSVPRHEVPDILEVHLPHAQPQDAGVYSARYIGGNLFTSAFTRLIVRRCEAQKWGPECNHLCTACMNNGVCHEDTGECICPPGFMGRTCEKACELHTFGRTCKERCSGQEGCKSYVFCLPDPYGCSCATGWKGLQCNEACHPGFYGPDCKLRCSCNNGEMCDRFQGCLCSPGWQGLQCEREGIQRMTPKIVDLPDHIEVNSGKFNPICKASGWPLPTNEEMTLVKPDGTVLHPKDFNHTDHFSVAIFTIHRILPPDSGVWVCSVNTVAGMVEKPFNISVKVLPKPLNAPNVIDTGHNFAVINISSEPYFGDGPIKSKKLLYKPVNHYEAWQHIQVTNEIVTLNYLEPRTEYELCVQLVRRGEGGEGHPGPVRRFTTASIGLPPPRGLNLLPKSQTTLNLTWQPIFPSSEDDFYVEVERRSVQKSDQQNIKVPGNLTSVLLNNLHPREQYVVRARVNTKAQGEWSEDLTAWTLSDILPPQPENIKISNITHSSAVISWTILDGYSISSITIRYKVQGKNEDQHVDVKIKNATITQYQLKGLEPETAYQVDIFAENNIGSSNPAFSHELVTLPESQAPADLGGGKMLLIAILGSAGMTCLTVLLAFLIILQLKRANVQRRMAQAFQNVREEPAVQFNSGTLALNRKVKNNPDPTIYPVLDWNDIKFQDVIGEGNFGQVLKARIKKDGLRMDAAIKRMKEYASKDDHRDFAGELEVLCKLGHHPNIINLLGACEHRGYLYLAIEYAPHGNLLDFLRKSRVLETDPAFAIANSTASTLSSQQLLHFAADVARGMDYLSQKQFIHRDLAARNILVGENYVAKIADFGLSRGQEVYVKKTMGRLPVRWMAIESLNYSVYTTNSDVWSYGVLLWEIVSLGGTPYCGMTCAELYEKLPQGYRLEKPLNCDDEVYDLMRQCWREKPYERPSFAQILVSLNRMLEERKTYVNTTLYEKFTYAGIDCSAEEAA
Sequence of FGFR2 (P21802 22-821, species assumed): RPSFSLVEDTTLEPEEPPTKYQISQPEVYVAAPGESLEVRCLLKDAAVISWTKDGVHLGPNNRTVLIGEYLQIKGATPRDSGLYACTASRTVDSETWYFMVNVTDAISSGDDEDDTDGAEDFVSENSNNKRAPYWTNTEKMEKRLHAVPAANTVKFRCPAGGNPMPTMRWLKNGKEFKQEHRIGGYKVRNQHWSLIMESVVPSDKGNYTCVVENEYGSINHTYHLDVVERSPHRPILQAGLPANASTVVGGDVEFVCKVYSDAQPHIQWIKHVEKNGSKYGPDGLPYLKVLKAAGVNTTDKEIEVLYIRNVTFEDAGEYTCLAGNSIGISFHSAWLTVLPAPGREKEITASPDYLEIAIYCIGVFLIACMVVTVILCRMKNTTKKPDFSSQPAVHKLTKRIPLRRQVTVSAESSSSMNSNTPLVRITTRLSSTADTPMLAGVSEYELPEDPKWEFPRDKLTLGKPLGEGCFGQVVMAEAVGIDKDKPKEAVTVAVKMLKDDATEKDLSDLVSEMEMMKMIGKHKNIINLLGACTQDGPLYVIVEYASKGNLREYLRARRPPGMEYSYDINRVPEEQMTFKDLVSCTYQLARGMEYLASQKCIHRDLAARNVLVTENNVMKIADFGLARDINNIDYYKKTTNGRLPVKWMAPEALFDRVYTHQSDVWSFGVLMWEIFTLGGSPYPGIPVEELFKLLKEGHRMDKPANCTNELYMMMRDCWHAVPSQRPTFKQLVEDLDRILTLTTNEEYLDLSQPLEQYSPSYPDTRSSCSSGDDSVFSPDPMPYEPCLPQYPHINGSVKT
Sequence of KDR (P35968 20-1356, species assumed): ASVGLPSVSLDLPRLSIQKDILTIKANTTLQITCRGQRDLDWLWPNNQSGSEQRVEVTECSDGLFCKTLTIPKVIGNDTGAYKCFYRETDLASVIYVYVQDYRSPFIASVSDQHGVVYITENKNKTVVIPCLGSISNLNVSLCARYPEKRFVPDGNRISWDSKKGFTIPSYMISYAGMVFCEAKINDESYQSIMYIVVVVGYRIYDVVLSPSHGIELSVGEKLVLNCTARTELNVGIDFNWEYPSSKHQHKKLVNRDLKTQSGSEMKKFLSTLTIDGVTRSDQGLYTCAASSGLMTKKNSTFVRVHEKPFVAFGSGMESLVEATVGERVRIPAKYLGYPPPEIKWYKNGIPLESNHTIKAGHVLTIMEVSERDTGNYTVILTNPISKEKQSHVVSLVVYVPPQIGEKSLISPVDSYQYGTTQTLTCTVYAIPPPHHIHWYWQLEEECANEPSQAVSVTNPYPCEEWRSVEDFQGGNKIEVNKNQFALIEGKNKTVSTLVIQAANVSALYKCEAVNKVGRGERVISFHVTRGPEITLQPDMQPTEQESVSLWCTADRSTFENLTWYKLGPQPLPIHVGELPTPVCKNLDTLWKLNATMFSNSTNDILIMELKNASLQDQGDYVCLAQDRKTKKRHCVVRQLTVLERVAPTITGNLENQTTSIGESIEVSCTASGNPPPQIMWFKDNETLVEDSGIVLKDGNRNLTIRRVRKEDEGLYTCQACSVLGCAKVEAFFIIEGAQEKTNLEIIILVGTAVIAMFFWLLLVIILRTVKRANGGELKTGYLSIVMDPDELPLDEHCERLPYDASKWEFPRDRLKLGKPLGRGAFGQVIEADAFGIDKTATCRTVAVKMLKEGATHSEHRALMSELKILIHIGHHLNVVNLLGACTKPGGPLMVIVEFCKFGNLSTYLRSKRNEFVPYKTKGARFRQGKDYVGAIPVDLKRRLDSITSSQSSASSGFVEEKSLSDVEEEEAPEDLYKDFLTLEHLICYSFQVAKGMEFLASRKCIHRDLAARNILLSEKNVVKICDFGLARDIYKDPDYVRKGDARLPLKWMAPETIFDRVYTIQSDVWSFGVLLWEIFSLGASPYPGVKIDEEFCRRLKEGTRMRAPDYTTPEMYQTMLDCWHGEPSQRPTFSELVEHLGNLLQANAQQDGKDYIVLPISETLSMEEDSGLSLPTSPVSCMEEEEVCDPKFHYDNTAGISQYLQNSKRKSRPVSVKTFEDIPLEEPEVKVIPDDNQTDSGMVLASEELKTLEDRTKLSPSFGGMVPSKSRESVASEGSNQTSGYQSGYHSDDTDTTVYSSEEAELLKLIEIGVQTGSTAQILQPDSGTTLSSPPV

Cc1[nH]nc(-c2nc3cc4cn[nH]c4cc3[nH]2)c1C(=O)NC1CCNCC1 [Example 14]
selectivity versus IGF-IR (IGF-IR): > 20 fold | selectivity versus Flt1 (Flt1): > 20 fold | pIC50 (GST-Chk1 enzyme): 8.22 | pIC50 [1]: 5.29 | selectivity versus FGFR4 (FGFR4): > 20 fold | selectivity versus FGFR2 (FGFR2): > 20 fold | selectivity versus EGFR (EGFR): > 20 fold | selectivity versus Tie2 (Tie2): > 20 fold | selectivity versus Syk (Syk): > 20 fold | selectivity versus ITK (ITK): > 20 fold | selectivity versus KDR (KDR): > 20 fold | selectivity versus FGFR1 (FGFR1): > 20 fold | selectivity versus PDGFRa (PDGFRa): > 20 fold
